Source: ChEMBL document CHEMBL3991601, “The target landscape of clinical kinase drugs” (Science, 2017)
The source made the active and inactive calls.

Key:
[1] = molecular target: T1, Very long-chain specific acyl-CoA dehydrogenase, mitochondrial (Homo sapiens, UniProt P49748)
T1 sequence (P49748 whole entry): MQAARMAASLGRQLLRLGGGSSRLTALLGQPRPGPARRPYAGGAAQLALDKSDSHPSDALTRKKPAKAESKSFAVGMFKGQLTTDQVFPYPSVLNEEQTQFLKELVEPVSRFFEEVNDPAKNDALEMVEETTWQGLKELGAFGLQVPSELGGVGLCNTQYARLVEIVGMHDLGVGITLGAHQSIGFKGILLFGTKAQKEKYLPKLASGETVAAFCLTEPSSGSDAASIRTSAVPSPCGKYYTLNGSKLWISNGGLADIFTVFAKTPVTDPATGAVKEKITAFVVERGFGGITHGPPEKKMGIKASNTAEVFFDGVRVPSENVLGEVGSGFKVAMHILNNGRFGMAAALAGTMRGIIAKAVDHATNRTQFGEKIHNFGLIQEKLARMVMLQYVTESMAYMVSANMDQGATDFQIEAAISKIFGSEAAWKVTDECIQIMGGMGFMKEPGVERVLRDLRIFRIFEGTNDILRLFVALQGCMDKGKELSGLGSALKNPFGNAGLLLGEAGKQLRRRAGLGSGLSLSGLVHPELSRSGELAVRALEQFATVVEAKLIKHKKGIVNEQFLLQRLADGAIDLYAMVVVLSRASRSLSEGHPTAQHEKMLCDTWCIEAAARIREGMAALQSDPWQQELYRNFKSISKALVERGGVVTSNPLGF

[2] = molecular target: Atypical kinase COQ8A, mitochondrial (Homo sapiens, UniProt Q8NI60)
Chain of Atypical kinase COQ8A, mitochondrial (Q8NI60 whole entry): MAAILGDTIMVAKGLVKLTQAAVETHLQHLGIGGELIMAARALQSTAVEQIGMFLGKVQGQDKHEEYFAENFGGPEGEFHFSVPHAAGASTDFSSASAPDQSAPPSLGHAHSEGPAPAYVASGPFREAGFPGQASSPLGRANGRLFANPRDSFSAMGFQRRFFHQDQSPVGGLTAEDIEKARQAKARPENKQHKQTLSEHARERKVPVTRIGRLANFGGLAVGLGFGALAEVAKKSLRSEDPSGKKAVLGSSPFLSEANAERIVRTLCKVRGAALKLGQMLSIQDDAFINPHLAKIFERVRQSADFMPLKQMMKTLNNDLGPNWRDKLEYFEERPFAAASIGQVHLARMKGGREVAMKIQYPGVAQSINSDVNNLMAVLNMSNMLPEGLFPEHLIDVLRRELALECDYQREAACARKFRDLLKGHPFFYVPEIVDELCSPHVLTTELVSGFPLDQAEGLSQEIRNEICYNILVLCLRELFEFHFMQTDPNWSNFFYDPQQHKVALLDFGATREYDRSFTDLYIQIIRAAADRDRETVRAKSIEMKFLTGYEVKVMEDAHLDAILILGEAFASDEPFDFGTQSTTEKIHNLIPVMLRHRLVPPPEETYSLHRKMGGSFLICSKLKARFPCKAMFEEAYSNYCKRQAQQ

[3] = molecular target: Tyrosine-protein kinase JAK1 (Homo sapiens, UniProt P23458)
Chain of Tyrosine-protein kinase JAK1 (P23458 whole entry): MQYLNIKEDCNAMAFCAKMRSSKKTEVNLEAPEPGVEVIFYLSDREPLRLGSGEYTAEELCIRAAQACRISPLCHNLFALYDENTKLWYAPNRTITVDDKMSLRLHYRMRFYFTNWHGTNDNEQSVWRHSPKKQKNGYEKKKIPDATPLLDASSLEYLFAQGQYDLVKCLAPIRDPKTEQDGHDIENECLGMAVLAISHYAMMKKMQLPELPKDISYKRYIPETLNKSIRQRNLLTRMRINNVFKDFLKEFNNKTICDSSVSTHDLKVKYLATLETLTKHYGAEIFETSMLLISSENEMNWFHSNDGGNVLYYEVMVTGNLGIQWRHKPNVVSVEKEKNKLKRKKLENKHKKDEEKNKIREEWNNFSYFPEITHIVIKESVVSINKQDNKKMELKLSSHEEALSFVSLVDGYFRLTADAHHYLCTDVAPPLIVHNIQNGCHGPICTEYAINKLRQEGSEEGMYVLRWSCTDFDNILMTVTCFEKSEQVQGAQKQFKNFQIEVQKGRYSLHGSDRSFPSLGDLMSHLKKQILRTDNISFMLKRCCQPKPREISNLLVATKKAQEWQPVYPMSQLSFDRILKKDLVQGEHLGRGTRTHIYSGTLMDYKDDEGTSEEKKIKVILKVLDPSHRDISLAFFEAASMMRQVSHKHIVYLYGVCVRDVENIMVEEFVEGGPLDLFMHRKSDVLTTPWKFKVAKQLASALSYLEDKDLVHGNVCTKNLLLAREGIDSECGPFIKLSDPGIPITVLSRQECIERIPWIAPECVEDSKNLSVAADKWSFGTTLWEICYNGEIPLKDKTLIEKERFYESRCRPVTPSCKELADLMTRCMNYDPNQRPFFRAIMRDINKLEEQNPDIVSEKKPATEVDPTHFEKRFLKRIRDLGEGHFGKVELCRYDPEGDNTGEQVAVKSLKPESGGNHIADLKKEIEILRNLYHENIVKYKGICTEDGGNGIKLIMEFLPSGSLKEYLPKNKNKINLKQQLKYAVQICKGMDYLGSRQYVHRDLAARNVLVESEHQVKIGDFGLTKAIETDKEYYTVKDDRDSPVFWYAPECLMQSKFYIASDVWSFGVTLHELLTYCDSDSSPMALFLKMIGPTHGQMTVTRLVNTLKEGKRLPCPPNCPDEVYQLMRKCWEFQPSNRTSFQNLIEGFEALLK

[4] = molecular target: T2, Mitogen-activated protein kinase kinase kinase kinase 3 (Homo sapiens, UniProt Q8IVH8)
T2 sequence (Q8IVH8 whole entry): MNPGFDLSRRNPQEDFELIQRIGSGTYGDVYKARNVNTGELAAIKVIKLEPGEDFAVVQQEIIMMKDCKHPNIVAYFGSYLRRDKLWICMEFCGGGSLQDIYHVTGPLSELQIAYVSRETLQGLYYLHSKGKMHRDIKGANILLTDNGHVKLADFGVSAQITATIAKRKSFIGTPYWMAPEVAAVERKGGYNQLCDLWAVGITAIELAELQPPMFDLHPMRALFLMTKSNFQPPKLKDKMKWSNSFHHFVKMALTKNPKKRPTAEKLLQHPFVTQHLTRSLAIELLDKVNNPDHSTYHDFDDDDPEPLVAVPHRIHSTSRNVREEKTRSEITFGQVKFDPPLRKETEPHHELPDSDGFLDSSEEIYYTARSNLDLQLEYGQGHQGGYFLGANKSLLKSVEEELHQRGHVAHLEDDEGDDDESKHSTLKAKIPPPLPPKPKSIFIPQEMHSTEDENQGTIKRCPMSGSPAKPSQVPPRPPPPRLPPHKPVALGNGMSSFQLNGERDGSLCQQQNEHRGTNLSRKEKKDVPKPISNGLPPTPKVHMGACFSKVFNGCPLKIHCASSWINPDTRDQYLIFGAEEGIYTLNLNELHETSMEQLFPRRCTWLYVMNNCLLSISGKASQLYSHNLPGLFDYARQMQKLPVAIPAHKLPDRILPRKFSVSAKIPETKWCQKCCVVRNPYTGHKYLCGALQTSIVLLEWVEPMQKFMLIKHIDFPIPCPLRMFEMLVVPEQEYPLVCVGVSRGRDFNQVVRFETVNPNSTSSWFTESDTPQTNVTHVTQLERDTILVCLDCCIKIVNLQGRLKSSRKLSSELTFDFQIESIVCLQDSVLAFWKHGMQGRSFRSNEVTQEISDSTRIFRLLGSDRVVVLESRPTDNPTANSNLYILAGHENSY

[5] = molecular target: Serine/threonine-protein kinase N2 (Homo sapiens, UniProt Q16513)
Chain of Serine/threonine-protein kinase N2 (Q16513 whole entry): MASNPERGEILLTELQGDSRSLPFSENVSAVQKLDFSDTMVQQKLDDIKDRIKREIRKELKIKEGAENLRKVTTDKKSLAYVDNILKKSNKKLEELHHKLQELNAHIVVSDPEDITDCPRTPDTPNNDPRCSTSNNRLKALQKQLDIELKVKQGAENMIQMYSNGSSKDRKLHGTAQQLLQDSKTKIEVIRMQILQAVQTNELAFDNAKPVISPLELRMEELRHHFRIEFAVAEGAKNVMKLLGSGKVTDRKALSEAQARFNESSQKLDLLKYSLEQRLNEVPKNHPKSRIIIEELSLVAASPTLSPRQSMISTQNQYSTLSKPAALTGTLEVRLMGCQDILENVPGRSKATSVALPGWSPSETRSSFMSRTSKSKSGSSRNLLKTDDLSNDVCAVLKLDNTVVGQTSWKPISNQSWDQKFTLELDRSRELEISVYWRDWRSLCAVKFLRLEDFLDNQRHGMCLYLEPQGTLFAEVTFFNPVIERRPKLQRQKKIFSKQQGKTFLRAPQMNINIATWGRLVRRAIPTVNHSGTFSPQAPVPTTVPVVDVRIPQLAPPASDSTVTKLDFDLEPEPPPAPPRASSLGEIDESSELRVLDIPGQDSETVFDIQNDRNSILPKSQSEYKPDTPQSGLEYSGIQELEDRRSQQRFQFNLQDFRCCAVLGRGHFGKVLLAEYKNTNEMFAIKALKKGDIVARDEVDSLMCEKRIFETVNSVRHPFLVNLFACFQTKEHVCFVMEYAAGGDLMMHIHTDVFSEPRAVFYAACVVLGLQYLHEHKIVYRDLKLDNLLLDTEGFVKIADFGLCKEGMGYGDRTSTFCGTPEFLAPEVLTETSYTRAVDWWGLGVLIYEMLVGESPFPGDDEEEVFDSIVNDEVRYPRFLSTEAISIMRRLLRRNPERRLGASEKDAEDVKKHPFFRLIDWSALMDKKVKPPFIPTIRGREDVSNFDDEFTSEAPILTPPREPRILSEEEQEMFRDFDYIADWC

[6] = molecular target: cAMP-dependent protein kinase catalytic subunit gamma (Homo sapiens, UniProt P22612)
Chain of cAMP-dependent protein kinase catalytic subunit gamma (P22612 whole entry): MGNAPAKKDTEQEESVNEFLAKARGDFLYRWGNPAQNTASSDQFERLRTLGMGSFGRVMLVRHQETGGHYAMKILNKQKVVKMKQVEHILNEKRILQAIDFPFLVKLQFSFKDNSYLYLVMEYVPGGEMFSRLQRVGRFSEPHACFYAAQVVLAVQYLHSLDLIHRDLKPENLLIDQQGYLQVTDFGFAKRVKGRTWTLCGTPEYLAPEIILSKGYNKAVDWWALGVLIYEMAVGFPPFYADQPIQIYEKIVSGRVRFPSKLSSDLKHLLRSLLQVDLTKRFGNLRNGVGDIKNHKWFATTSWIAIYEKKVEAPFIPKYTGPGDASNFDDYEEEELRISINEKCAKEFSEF

[7] = molecular target: T3, Structural maintenance of chromosomes protein 1A (Homo sapiens, UniProt Q14683)
T3 sequence (Q14683 whole entry): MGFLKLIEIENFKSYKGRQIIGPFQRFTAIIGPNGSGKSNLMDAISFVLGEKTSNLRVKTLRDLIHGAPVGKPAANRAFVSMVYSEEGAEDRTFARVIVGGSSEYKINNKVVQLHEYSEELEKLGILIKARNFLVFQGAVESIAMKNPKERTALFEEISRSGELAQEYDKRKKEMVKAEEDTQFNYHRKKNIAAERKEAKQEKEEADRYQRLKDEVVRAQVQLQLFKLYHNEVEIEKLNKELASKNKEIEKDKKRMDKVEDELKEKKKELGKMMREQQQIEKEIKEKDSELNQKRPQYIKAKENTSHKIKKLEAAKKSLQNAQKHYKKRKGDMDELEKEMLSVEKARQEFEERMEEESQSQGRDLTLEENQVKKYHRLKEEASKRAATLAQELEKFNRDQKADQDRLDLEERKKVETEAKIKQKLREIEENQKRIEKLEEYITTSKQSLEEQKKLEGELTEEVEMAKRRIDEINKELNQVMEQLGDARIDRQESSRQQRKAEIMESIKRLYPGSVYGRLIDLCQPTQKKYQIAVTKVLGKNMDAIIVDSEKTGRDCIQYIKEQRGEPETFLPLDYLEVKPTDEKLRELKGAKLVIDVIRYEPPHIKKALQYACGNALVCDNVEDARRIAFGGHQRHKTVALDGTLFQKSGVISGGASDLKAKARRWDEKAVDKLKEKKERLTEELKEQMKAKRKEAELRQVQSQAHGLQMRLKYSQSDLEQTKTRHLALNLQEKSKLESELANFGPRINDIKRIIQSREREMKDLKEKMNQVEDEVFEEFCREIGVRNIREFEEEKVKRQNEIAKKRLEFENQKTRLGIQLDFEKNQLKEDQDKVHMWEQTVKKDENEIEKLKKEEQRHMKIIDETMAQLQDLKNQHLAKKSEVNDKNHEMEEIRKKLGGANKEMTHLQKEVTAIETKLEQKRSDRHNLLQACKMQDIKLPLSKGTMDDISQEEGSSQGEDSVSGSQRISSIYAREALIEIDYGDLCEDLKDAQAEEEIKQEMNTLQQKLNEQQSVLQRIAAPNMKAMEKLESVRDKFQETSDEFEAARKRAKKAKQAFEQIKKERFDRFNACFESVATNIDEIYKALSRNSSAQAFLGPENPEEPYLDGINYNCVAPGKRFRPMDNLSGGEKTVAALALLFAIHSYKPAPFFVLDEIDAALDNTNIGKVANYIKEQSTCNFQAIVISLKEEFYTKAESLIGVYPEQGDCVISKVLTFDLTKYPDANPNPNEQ

Measured: Kd
Further: in the data inactive means no Kd found up to 30 µM.

Cc1cc(-c2cc(OC(=O)c3ccccc3)ccc2Cl)cc2nnc(Nc3ccc(OCCN4CCCC4)cc3)nc12 [TG100-801]
inactive: [1] > 30 µM | [2] > 30 µM | [3] > 30 µM | [4] > 30 µM | [5] > 30 µM | [6] > 30 µM | [7] > 30 µM

C[C@@H]1COC(Nc2ccc3ncnc(Nc4ccc(OCc5nccs5)c(Cl)c4)c3c2)=N1 [VARLITINIB]
inactive: [1] > 30 µM | [2] > 30 µM | [3] > 30 µM | [4] > 30 µM | [5] > 30 µM | [6] > 30 µM | [7] > 30 µM

NC(=O)c1ccc(N(C(N)=O)c2c(F)cccc2F)nc1-c1ccc(F)cc1F [VX-702]
inactive: [1] > 30 µM | [2] > 30 µM | [3] > 30 µM | [4] > 30 µM | [5] > 30 µM | [6] > 30 µM | [7] > 30 µM

COc1cc2ncnc(Nc3ccc(O)cc3)c2cc1OC [WHI-P131]
inactive: [1] > 30 µM | [2] > 30 µM | [3] > 30 µM | [4] > 30 µM | [5] > 30 µM | [6] > 30 µM | [7] > 30 µM
